Source: paper PMC8550792, “Evolution of kinase polypharmacology across HSP90 drug discovery” (Cell Chemical Biology, 2021)

Key:
Assay in all cases: biochemical
Format in all cases: biochemical
382 unique human kinases [1] = biological target: T1, 382 unique human kinases (Homo sapiens, UniProt O00444); conditions: PLK4/SAK, 10 uM; for remaining activity at 10 µM: read-out: % Enzyme Activity (relative to DMSO controls)
T1 construct: purchased Reaction Biology (HotSpot contract assay)
T1 sequence (O00444 1-970): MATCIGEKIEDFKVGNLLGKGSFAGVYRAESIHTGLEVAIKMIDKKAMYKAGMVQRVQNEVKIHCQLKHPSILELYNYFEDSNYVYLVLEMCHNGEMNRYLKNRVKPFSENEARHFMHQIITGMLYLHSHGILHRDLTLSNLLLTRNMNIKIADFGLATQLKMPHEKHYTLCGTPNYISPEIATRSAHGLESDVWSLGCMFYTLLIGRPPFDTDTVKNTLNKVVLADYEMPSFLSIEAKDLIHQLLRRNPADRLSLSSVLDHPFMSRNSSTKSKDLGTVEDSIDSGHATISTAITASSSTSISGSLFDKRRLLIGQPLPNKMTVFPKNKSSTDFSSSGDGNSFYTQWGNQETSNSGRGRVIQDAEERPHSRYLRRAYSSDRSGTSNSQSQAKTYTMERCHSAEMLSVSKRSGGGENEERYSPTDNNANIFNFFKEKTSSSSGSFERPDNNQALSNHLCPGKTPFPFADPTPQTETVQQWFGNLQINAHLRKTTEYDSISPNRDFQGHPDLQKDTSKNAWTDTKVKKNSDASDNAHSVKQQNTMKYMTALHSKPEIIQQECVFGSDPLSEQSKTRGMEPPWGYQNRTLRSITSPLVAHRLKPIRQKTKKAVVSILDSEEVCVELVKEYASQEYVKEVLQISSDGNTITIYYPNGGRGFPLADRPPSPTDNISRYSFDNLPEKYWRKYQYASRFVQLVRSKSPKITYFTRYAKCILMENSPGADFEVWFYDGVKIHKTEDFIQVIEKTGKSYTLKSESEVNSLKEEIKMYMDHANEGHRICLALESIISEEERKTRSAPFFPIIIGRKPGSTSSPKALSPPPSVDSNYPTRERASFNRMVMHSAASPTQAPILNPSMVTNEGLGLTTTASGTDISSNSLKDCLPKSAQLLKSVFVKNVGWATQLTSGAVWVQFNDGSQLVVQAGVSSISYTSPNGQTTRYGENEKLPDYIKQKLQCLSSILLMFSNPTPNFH

382 unique human kinases [2] = biological target: T2, 382 unique human kinases (Homo sapiens, UniProt P00533, L858R); conditions: kinase EGFR (L858R), compound 10 uM; for remaining activity at 10 µM: read-out: % Enzyme Activity (relative to DMSO controls)
T2 construct: purchased Reaction Biology (HotSpot contract assay)

382 unique human kinases [3] = biological target: T3, 382 unique human kinases (Homo sapiens, UniProt P20794); conditions: kinase MAK, compound 10 uM; for remaining activity at 10 µM: read-out: % Enzyme Activity (relative to DMSO controls)
T3 construct: purchased Reaction Biology (HotSpot contract assay)
T3 sequence (P20794 1-623): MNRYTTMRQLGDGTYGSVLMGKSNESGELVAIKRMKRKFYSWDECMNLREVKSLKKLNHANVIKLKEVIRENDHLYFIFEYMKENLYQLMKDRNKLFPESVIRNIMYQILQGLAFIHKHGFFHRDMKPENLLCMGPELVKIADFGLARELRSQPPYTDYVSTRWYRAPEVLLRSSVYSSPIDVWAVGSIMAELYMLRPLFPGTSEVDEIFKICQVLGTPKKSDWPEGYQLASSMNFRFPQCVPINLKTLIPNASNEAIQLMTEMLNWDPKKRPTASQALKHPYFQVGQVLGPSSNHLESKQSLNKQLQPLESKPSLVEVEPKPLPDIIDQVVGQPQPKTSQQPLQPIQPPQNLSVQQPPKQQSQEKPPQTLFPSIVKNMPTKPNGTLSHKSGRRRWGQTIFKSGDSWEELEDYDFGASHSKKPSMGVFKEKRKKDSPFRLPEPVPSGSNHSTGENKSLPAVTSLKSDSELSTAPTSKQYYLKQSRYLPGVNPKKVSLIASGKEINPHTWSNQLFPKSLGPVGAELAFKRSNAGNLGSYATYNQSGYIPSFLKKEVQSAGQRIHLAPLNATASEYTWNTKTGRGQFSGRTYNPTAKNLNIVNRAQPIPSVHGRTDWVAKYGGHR

382 unique human kinases [4] = biological target: T4, 382 unique human kinases (Homo sapiens, UniProt P21802, K641R); conditions: FGFR2 (K641R), 10 uM; for remaining activity at 10 µM: read-out: % Enzyme Activity (relative to DMSO controls)
T4 construct: purchased Reaction Biology (HotSpot contract assay)

382 unique human kinases [5] = biological target: T5, 382 unique human kinases (Homo sapiens, UniProt P49137); conditions: MAPKAPK2, compound at 10 uM, duplicate values; for remaining activity at 10 µM: read-out: % Enzyme Activity (relative to DMSO controls)
T5 construct: purchased Reaction Biology (HotSpot contract assay)

382 unique human kinases [6] = biological target: T6, 382 unique human kinases (Homo sapiens, UniProt Q13627); conditions: DYRK1/DYRK1A, 10 uM; for remaining activity at 10 µM: read-out: % Enzyme Activity (relative to DMSO controls)
T6 construct: purchased Reaction Biology (HotSpot contract assay)

382 unique human kinases [7] = biological target: T7, 382 unique human kinases (Homo sapiens, UniProt Q9UM73, R1275Q); conditions: ALK (R1275Q), 10 uM; for remaining activity at 10 µM: read-out: % Enzyme Activity (relative to DMSO controls)
T7 construct: purchased Reaction Biology (HotSpot contract assay)

382 unique human kinases [8] = biological target: T8, 382 unique human kinases (Homo sapiens, UniProt P49761); conditions: CLK3, [ATP] 30 µM, compound 10 uM; for remaining activity at 10 µM: read-out: % Enzyme Activity (relative to DMSO controls)
T8 construct: purchased Reaction Biology (HotSpot contract assay)

382 unique human kinases [9] = biological target: T9, 382 unique human kinases (Homo sapiens, UniProt Q16288); conditions: TRKC, [ATP] 100 µM
T9 construct: purchased Reaction Biology (HotSpot contract assay)

382 unique human kinases [10] = biological target: T10, 382 unique human kinases (Homo sapiens, UniProt Q86V86); conditions: PIM3, [ATP] 20 µM
T10 construct: purchased Reaction Biology (HotSpot contract assay)

382 unique human kinases [11] = biological target: T11, 382 unique human kinases (Homo sapiens, UniProt Q96RG2); conditions: PASK, [ATP] 50 µM
T11 construct: purchased Reaction Biology (HotSpot contract assay)

382 unique human kinases [12] = biological target: T12, 382 unique human kinases (Homo sapiens, UniProt Q9UM73, S1206R); conditions: ALK (S1206R), [ATP] 20 µM, compound 10 uM; for remaining activity at 10 µM: read-out: % Enzyme Activity (relative to DMSO controls)
T12 construct: purchased Reaction Biology (HotSpot contract assay)

[13] = compound 1 uM, read-out: % Enzyme Activity (relative to DMSO controls)
[14] = compound 10 uM, read-out: % Enzyme Activity (relative to DMSO controls)

T11 sequence (Q96RG2 whole entry): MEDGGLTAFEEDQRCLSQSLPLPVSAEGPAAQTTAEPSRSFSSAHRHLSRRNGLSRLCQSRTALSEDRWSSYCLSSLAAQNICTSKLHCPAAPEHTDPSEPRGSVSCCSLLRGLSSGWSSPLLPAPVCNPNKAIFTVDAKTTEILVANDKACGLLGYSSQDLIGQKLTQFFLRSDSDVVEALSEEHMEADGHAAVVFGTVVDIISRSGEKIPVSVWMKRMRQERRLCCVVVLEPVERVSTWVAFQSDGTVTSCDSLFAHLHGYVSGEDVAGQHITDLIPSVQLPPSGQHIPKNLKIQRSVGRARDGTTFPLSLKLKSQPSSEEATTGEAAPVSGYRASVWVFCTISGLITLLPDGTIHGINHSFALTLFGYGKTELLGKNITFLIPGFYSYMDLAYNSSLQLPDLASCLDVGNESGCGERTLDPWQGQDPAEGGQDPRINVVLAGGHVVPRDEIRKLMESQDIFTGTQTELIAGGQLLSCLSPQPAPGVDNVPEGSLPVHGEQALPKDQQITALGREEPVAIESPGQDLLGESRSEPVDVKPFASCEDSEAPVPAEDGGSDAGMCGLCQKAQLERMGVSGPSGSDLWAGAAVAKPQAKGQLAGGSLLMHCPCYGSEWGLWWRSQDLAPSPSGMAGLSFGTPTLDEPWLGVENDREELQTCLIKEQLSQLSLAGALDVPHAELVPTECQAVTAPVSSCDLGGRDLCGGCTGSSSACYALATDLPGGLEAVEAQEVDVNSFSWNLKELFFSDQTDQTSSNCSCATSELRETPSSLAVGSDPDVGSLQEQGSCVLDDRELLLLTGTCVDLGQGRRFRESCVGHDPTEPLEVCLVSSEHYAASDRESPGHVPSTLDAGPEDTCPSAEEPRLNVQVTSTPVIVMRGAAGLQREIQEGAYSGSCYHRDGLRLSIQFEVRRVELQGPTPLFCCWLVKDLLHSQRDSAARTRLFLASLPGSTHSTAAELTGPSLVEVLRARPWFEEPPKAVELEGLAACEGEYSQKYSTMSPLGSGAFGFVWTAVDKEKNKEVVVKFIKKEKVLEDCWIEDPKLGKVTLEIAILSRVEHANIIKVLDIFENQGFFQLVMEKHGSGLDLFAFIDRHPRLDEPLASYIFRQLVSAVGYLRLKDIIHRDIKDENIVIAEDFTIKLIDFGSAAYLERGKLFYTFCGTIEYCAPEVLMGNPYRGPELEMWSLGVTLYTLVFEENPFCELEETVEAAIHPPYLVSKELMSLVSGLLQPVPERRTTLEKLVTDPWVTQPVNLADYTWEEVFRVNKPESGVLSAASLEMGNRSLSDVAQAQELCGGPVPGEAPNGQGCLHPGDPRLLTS
T8 sequence (P49761 whole entry): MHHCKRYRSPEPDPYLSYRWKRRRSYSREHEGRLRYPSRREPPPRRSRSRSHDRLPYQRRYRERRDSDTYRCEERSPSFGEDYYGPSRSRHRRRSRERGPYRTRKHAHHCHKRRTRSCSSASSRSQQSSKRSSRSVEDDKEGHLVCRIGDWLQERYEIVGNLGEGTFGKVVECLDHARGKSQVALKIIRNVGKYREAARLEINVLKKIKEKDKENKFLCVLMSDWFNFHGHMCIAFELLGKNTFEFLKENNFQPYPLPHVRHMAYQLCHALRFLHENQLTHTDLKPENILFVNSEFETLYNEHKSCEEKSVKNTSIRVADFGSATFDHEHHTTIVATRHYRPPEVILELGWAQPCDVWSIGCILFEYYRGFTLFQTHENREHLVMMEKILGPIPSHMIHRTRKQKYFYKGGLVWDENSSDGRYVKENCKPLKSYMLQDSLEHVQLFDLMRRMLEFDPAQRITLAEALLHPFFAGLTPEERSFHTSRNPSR
T12 sequence (Q9UM73 19-1620 S1206R): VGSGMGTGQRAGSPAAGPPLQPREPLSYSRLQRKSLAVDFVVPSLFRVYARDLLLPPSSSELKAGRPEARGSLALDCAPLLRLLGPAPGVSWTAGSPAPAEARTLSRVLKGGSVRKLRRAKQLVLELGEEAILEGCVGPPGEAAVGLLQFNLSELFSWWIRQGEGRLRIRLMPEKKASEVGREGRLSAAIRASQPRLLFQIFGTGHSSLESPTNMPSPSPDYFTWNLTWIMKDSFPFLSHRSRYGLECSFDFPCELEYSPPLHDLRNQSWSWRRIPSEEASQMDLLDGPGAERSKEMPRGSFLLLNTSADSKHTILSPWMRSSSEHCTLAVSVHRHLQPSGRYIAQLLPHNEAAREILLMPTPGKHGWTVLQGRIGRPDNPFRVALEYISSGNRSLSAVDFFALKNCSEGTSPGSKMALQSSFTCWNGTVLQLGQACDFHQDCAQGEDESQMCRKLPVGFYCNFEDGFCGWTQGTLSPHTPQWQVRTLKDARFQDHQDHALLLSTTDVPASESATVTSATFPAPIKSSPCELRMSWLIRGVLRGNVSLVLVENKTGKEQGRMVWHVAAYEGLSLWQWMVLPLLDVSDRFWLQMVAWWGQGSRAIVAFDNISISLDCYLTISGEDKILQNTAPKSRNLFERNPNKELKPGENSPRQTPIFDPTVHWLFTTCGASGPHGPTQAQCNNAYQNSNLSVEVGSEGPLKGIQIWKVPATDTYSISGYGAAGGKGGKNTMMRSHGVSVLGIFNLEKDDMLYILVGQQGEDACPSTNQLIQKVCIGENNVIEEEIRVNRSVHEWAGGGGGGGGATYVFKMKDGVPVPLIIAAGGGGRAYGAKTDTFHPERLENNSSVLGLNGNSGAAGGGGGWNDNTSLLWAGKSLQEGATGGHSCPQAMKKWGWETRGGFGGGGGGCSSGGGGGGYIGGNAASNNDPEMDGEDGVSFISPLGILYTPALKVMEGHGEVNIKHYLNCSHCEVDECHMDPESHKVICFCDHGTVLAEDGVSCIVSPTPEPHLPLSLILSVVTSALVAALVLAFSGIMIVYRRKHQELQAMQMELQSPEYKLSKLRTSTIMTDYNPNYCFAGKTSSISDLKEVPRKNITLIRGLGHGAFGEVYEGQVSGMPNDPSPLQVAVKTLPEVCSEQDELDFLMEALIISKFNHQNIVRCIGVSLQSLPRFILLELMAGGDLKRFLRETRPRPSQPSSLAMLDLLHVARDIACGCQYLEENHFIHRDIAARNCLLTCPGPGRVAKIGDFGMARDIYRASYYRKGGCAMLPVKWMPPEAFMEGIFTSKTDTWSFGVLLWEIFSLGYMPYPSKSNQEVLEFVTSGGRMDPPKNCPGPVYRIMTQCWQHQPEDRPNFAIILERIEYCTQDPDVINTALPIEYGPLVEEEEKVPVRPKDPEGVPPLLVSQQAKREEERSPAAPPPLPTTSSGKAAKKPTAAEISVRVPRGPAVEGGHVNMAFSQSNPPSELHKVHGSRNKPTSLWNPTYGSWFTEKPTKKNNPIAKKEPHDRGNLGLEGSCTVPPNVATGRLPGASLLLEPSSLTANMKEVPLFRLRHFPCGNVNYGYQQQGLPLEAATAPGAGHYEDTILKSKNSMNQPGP
T5 sequence (P49137 whole entry): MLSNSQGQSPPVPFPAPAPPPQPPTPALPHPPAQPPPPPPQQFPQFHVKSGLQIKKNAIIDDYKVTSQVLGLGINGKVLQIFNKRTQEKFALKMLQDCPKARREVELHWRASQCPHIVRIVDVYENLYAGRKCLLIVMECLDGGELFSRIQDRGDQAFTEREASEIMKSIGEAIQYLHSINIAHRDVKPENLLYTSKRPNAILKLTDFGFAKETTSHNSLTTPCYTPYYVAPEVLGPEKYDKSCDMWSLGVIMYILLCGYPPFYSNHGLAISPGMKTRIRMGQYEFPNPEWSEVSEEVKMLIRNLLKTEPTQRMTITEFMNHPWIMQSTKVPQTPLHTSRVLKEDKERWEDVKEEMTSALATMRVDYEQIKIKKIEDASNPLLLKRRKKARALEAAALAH
T7 sequence (Q9UM73 19-1620 R1275Q): as the sequence (Q9UM73 19-1620 S1206R) above, with R1188S, R1257Q counted along it
T9 sequence (Q16288 32-839): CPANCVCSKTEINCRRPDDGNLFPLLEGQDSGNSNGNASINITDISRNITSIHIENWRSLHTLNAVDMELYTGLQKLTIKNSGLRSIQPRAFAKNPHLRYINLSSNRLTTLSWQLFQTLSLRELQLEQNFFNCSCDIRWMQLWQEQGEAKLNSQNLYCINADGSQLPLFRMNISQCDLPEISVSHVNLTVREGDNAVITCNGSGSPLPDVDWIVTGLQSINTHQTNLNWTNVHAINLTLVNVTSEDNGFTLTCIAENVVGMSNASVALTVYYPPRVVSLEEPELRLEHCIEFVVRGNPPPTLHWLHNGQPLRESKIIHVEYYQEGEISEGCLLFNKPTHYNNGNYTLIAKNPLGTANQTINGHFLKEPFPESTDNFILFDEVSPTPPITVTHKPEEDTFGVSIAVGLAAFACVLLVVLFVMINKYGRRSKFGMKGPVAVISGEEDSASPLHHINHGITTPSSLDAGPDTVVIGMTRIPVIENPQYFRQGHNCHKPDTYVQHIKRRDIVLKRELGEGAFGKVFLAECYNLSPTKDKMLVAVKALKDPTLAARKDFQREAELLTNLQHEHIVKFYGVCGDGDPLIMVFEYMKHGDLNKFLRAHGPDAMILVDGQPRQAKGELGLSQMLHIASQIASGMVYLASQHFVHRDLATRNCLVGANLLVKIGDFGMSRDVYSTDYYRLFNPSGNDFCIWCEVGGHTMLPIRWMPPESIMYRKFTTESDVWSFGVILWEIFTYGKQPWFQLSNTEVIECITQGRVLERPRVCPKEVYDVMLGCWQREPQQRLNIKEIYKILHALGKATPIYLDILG

How did the remaining activity at 10 µM (382 unique human kinases [1]) turn out when `CC(C)c1cc(-c2n[nH]c(=O)n2-c2ccc3c(ccn3C)c2)c(O)cc1O` [Ganetespib (STA9090)] was run?
The remaining activity at 10 µM was 78.2%.

And the remaining activity at 10 µM (382 unique human kinases [2])?
The remaining activity at 10 µM was 88.8%.

And the remaining activity at 10 µM (382 unique human kinases [3])?
The remaining activity at 10 µM was 86.4%.

What about the remaining activity at 10 µM (382 unique human kinases [4]) of the same compound?
Its remaining activity at 10 µM is 78%.

And the remaining activity at 10 µM (382 unique human kinases [5])?
Its remaining activity at 10 µM is 102%.

What about the remaining activity at 10 µM (382 unique human kinases [6]) of the same compound?
The remaining activity at 10 µM was 69.6%.

What about the remaining activity at 10 µM (382 unique human kinases [7]) of the same compound?
Its remaining activity at 10 µM is 65.1%.

With `CC(C)c1cc(-c2n[nH]c(=O)n2-c2ccc3c(ccn3C)c2)c(O)cc1O` [Ganetespib] as the compound, how does the remaining activity at 10 µM (382 unique human kinases [8]) read?
The remaining activity at 10 µM was 39%.

What about the remaining activity at 1 µM (382 unique human kinases [9]; [13]) of the same compound?
The remaining activity at 1 µM was 30.6%.

And the remaining activity at 10 µM (382 unique human kinases [9]; [14])?
Its remaining activity at 10 µM is 7.62%.

What about the remaining activity at 1 µM (382 unique human kinases [10]; [13]) of the same compound?
The remaining activity at 1 µM was 61.1%.

What about the remaining activity at 10 µM (382 unique human kinases [10]; [14]) of the same compound?
Its remaining activity at 10 µM is 14.3%.

What about the remaining activity at 1 µM (382 unique human kinases [11]; [13]) of the same compound?
Its remaining activity at 1 µM is 49.7%.

What about the remaining activity at 10 µM (382 unique human kinases [11]; [14]) of the same compound?
Its remaining activity at 10 µM is 12.1%.

And the remaining activity at 10 µM (382 unique human kinases [12])?
The remaining activity at 10 µM was 42%.

How did the “% Enzyme Activity (relative to DMSO controls)” value (382 unique human kinases [1]) turn out when `CCNC(=O)c1noc(-c2cc(C(C)C)c(O)cc2O)c1-c1ccc(CN2CCOCC2)cc1` [Luminespib (AUY-922)] was run?
Its value is 86.84%.

And the remaining activity at 10 µM (382 unique human kinases [1])?
Its remaining activity at 10 µM is 89.6%.

And the “% Enzyme Activity (relative to DMSO controls)” value (382 unique human kinases [2])?
Its value is 96.48%.

What about the remaining activity at 10 µM (382 unique human kinases [2]) of the same compound?
Its remaining activity at 10 µM is 97%.

And the “% Enzyme Activity (relative to DMSO controls)” value (382 unique human kinases [3])?
The value was 94.57%.

And the remaining activity at 10 µM (382 unique human kinases [3])?
The remaining activity at 10 µM was 94.7%.

And the “% Enzyme Activity (relative to DMSO controls)” value (382 unique human kinases [4])?
Its value is 98.16%.

And the remaining activity at 10 µM (382 unique human kinases [4])?
The remaining activity at 10 µM was 98.4%.

And the “% Enzyme Activity (relative to DMSO controls)” value (382 unique human kinases [5])?
Its value is 105.08%.

And the remaining activity at 10 µM (382 unique human kinases [5])?
Its remaining activity at 10 µM is 106%.

And the “% Enzyme Activity (relative to DMSO controls)” value (382 unique human kinases [6])?
The value was 94.59%.

And the remaining activity at 10 µM (382 unique human kinases [6])?
The remaining activity at 10 µM was 97.2%.

And the “% Enzyme Activity (relative to DMSO controls)” value (382 unique human kinases [7])?
Its value is 101.49%.

And the remaining activity at 10 µM (382 unique human kinases [7])?
The remaining activity at 10 µM was 102%.

What does the source list for `CCNC(=O)c1noc(-c2cc(C(C)C)c(O)cc2O)c1-c1ccc(CN2CCOCC2)cc1` [Luminespib]?
% Enzyme Activity (relative to DMSO controls) (382 unique human kinases [8]): 45.99%; remaining activity at 10 µM (382 unique human kinases [8]): 46.6%; % Enzyme Activity (relative to DMSO controls) (382 unique human kinases [9]; compound 10 uM): 94.48%; remaining activity at 10 µM (382 unique human kinases [9]; [14]): 96.8%; % Enzyme Activity (relative to DMSO controls) (382 unique human kinases [10]; compound 10 uM): 94.11%; remaining activity at 10 µM (382 unique human kinases [10]; [14]): 97.5%; % Enzyme Activity (relative to DMSO controls) (382 unique human kinases [11]; compound 10 uM): 98.65%; remaining activity at 10 µM (382 unique human kinases [11]; [14]): 99%; % Enzyme Activity (relative to DMSO controls) (382 unique human kinases [12]): 100.88%; remaining activity at 10 µM (382 unique human kinases [12]): 104%
